From patent US6806230B1, “Pyrimidine derivatives and herbicides containing them” (Kumiai Chemical Industry Co., Ltd., priority 1999, dated 2004)

Experiments:
Assay type in all cases: in vivo
barnyard grass (Eo) [1] = assay: Test Example 1: herbicidal effects by flooded paddy field treatment; design: herbicidal effects, Eo (barnyard grass):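 0-5 growth inhibition grade; 5 = over 90%; 4 = 70-90%; 3 = 50-70%; 2 = 30-50%; 1 = 10-30%; 0 = under 10%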; conditions: for Herbicidal effect index, Eo: dose 100 gai/10a, examined on 21st day after treatment, index 0-5 per Table 44; for herbicidal effects, Eo (barnyard grass): dose 100 g active ingredient per 10 ares, examined on the 21st day after treatment, standards of Table 44;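 as to Herbicidal effect index, Eo: 0-5 growth inhibition grade; 5 = over 90%; 4 = 70-90%; 3 = 50-70%; 2 = 30-50%; 1 = 10-30%; 0 = under 10%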
How it was run: (§1)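 Herbicidal effect scored 21 days post-treatment after greenhouse cultivation. Treatment was applied dropwise to the water surface, one day after sowing, as a diluted wettable powder (100 g a.i./10 ares). Pots held puddled paddy soil under 3 cm water.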

monochoria (Mo) [2] = assay: as above; design: herbicidal effects, Mo (monochoria):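 0-5 growth inhibition grade; 5 = over 90%; 4 = 70-90%; 3 = 50-70%; 2 = 30-50%; 1 = 10-30%; 0 = under 10%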; conditions: for Herbicidal effect index, Mo: dose 100 gai/10a, examined on 21st day after treatment, index 0-5 per Table 44; for herbicidal effects, Mo (monochoria): dose 100 g active ingredient per 10 ares, examined on the 21st day after treatment, standards of Table 44
How it was run: as §1

barnyard grass (Ec) = assay: Test Example 2: herbicidal effects by upland soil treatment; design: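 0-5 growth inhibition grade; 5 = over 90%; 4 = 70-90%; 3 = 50-70%; 2 = 30-50%; 1 = 10-30%; 0 = under 10%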; conditions: dose 100 g active ingredient per 10 ares, examined on the 21st day after treatment, standards of Table 44
How it was run: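 Pre-emergence test: barnyard grass and green foxtail sown in upland soil, then soil surface sprayed with wettable-powder formulation at 100 g active ingredient per 10 ares (100 l per 10 ares). Grown in greenhouse; herbicidal effect scored on a rating scale 21 days after treatment.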

green foxtail (Se) = assay: as above; conditions: dose 100 g active ingredient per 10 ares, examined on the 21st day after treatment, standards of Table 44;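 also: 0-5 growth inhibition grade; 5 = over 90%; 4 = 70-90%; 3 = 50-70%; 2 = 30-50%; 1 = 10-30%; 0 = under 10%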
Protocol: In a 80 cm^2 plastic pot, upland soil was filled, and seeds of barnyard grass (Ec) and green foxtail (Se) were sown and covered with soil. A wettable powder prepared in accordance with Formulation Example 1 was diluted with water and uniformly applied to the soil surface by means of a small size spray at a rate of 100 l per 10 ares, so that the dose of the active ingredient would be 100 g per 10 ares. Thereafter, cultivation was carried out in a green house, and on the 21st day after the treatment, the herbicidal effects were examined in accordance with the standards as identified in Table 44.

barnyard grass (Eo) [3] = assay: Test Example 4: selectivity for a crop plant by flooded paddy field treatment; design: scale not given here; conditions: for Eo (herbicidal effect index): barnyard grass, dose 25 gai/10a, 21st day after treatment, index per Table 44; for Eo (herbicidal effects, index): dose 25 g active ingredient per 10 ares, examined on the 21st day after treatment
How it was run: (§2)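 Flooded-paddy treatment: the wettable powder formulation, diluted in water, was applied dropwise to 3 cm floodwater at 25 g a.i./10 ares one day after sowing barnyard grass and monochoria and transplanting rice at the second leaf stage. Greenhouse grown; herbicidal effect rated against set standards on day 21.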

monochoria (Mo) [4] = assay: as above; design: scale not given here; conditions: for Mo (herbicidal effect index): monochoria, dose 25 gai/10a, 21st day after treatment, index per Table 44; for Mo (herbicidal effects, index): dose 25 g active ingredient per 10 ares, examined on the 21st day after treatment
How it was run: as §2

rice (Or) = assay: as above; design: scale not given here; conditions: rice transplanted at second leaf stage; for Or (herbicidal effect index on crop): dose 25 gai/10a, 21st day after treatment, index per Table 44; for Or (effect on crop plant rice, index): dose 25 g active ingredient per 10 ares, examined on the 21st day after treatment
How it was run: as §2
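For Herbicidal effect index, Mo in this document: 0-5 growth inhibition grade; 5 = over 90%; 4 = 70-90%; 3 = 50-70%; 2 = 30-50%; 1 = 10-30%; 0 = under 10%.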

| SMILES | Herbicidal effect index, Eo (barnyard grass (Eo) [1]) | Herbicidal effect index, Mo (monochoria (Mo) [2]) | herbicidal effects, Ec (barnyard grass) (barnyard grass (Ec)) | herbicidal effects, Se (green foxtail) (green foxtail (Se)) | Eo (herbicidal effect index) (barnyard grass (Eo) [3]) | Mo (herbicidal effect index) (monochoria (Mo) [4]) | Or (herbicidal effect index on crop) (rice (Or)) | herbicidal effects, Eo (barnyard grass) (barnyard grass (Eo) [1]) | herbicidal effects, Mo (monochoria) (monochoria (Mo) [2]) | Eo (herbicidal effects, index) (barnyard grass (Eo) [3]) | Mo (herbicidal effects, index) (monochoria (Mo) [4]) | Or (effect on crop plant rice, index) (rice (Or)) |
| --- | --- | --- | --- | --- | --- | --- | --- | --- | --- | --- | --- | --- |
| CC(Oc1ccc(Cl)cc1)C(=O)N(C)C(c1cncnc1C(F)(F)F)C(C)C (mixture of isomers) [Compound 1-116] | 5 | 5 | 5 | 4 | 5 | 5 | 0 |  |  |  |  |  |
| CC(C)C(c1cncnc1C(F)(F)F)N(C)C(=O)Cc1ccc(Cl)c(F)c1 (racemic) [1-180] |  |  | 5 | 5 | 5 | 5 | 1 | 5 | 5 |  |  |  |
| CCCN(C(=O)Cc1ccc(F)cc1)C(c1cncnc1C(F)(F)F)C(C)C (racemic) [1-181] |  |  | 5 | 5 | 5 | 5 | 1 | 5 | 5 |  |  |  |
| CC(C)C(c1cncnc1C(F)(F)F)N(C)C(=O)CSc1ccccc1 (racemic) [1-182] |  |  | 5 | 5 | 5 | 5 | 1 | 5 | 5 |  |  |  |
| CC(c1cncnc1C(C)(C)C)N(C)C(=O)Cc1ccc(Cl)cc1 (racemic) [1-190] |  |  | 4 | 4 | 5 | 5 | 0 | 5 | 5 |  |  |  |
| Cc1ccc(CC(=O)N(C)C(c2ccccc2)c2cncnc2C(F)(F)F)cc1 (racemic) [1-197] |  |  | 5 | 5 | 5 | 5 | 0 | 5 | 5 |  |  |  |
| CN(C(=O)Cc1ccc(Cl)cc1)C(c1cccs1)c1cncnc1C(F)(F)F (racemic) [1-200] |  |  | 5 | 5 | 5 | 5 | 1 | 5 | 5 |  |  |  |
| CN(C(=O)Cc1ccccc1)C(c1ccc(F)cc1)c1cncnc1C(F)(F)F (racemic) [1-217] |  |  | 5 | 5 | 5 | 5 | 1 | 5 | 5 |  |  |  |
| CN(C(=O)Cc1ccc(Cl)cc1)C(c1ccc(F)cc1)c1cncnc1C(F)(F)F (racemic) [1-219] |  |  | 5 | 5 | 5 | 5 | 1 | 5 | 5 |  |  |  |
| Cc1ccc(C(c2cncnc2C(F)(F)F)N(C)C(=O)Cc2ccccc2)cc1 (racemic) [1-225] |  |  | 5 | 5 | 5 | 5 | 0 | 5 | 5 |  |  |  |
| Cc1ccc(C(c2cncnc2C(F)(F)F)N(C)C(=O)Cc2ccc(F)cc2)cc1 (racemic) [1-226] |  |  | 5 | 4 | 5 | 5 | 1 | 5 | 5 |  |  |  |
| Cc1ccc(CC(=O)N(C)C(c2ccc(C)cc2)c2cncnc2C(F)(F)F)cc1 (racemic) [1-228] |  |  | 5 | 5 | 5 | 5 | 0 | 5 | 5 |  |  |  |
| COc1ccc(CC(=O)N(C)C(c2cncnc2C(F)(F)Cl)C(C)C)cc1 (racemic) [Compound 1-16] | 5 | 5 | 4 | 5 |  |  |  |  |  | 5 | 5 | 1 |
| CC(C)C(c1cncnc1C(F)(F)Cl)N(C)C(=O)Sc1ccccc1 (racemic) [Compound 1-17] | 5 | 5 | 4 | 4 |  |  |  |  |  | 5 | 5 | 1 |
| CC(C)C(c1cncnc1C(F)(F)F)N(C)C(=O)Cc1ccccc1Cl (racemic) [Compound 1-20] | 5 | 5 | 5 | 5 |  |  |  |  |  | 5 | 5 | 1 |
| CN(C(=O)Cc1ccccc1)C(c1cncnc1C(F)(F)F)C1CC1 (racemic) [Compound 1-34] | 5 | 5 | 5 | 5 |  |  |  |  |  | 5 | 5 | 1 |
| CN(C(=O)Cc1ccc(F)cc1)C(c1ccccc1)c1cncnc1C(F)(F)F (racemic) [Compound 1-36] | 5 | 5 | 5 | 5 |  |  |  |  |  | 5 | 5 | 1 |
| CC(C)C(c1cncnc1C(F)(F)Cl)N(C)C(=O)Nc1ccccc1 (racemic) [Compound 1-38] | 5 | 5 | 5 | 4 |  |  |  |  |  | 5 | 5 | 0 |
| CC(C)C(c1cncnc1C(F)(F)F)N(C)C(=O)Cc1cc(F)ccc1F (racemic) [Compound 1-40] | 5 | 5 | 5 | 4 |  |  |  |  |  | 5 | 5 | 0 |
| CC(C)C(c1cncnc1C(F)(F)F)N(C)C(=O)Cc1ccc([N+](=O)[O-])cc1 (racemic) [Compound 1-52] | 5 | 5 | 5 | 5 |  |  |  |  |  | 5 | 5 | 1 |
| CCCN(C(=O)Cc1ccc(C)cc1)C(c1cncnc1C(F)(F)F)C(C)C (racemic) [Compound 1-62] | 5 | 5 | 4 | 4 |  |  |  |  |  | 5 | 5 | 1 |
| CCCN(C(=O)Cc1ccccc1)C(c1cncnc1C(F)(F)F)C(C)C (racemic) [Compound 1-63] | 5 | 5 | 5 | 5 |  |  |  |  |  | 5 | 5 | 1 |
| Cc1ccc(NC(=O)N(C)C(c2cncnc2C(F)(F)Cl)C(C)C)cc1 (centres unmarked) [Compound 1-37, N-methyl-N-[2-methyl-1-(4-chlorodifluoromethylpyrimidin-5-yl)propyl]-N′-(4-methylphenyl)urea] | 5 | 5 | 5 | 5 |  |  |  |  |  |  |  |  |
